Source: patent US20230131219A1, “USE OF AGONISTS TO AUGMENT CAR T FUNCTION IN SOLID TUMORS” (The University of North Carolina at Chapel Hill, priority 2019, published 2023)

Tests used:
Format in all cases: in vivo, FVB-Neu mice
NT2 tumors [1] = experiment: Orthotopic murine breast tumor model: tumor growth and survival
Protocol: 8-12 week old female FVB-Neu mice (Jackson Labs) were used under a protocol approved by University of North Carolina Institutional Animal Care and Use Committee. For tumor inoculation, mice were intradermally injected with 5×10^4 NT2 tumor cells into an axillary mammary gland. 21 days later (day 0), 1.5×10^6 CD4+ and 1.5×10^6 CD8+ CAR T cells were injected intravenously. Tumors were measured twice weekly with calipers and the tumor area calculated as length×width. The change of tumor area was determined by subtracting the tumor area before CAR T injection with the value on the day of the measurement. Per institutional guidelines, tumor-bearing mice were sacrificed when the tumor area reached 200 mm^2 or loss of more than 20% of total body weight. For tumor-bearing animals receiving combination therapy, animals underwent lymphodepletion with 5 Gy of whole body irradiation (X-RAD 320, Precision X-Ray) one day prior to CAR T injection. In the morning of day 0 mice were injected with 500 μg of DMXAA (Tocris) distal to the site of tumor growth with CAR T cells injected in the afternoon. Starting 1 day after CAR T infusion, anti-PD-1 (J43, 200 μg/mouse), anti-Gr-1 (RB6-8C5, […]), and […] (R4-6A2, 250 μg/mouse) mAb were injected intraperitoneally into respective recipients.

NT2 tumors [2] = experiment: Flow cytometry of CAR T cells in tumor microenvironment and spleen
Protocol: At indicated time points, tumors were bluntly resected and cut into small pieces and processed into a single-cell suspension using gentleMACS™ Dissociator (Miltenyi). Lymphocyte enrichment was achieved by isolating cells at the interface of 44% Percoll (Sigma-Aldrich) in media and Lympholyte-M (Cedarlane). Isolated immune cells were stained as described below. The lymphocyte fraction was not enriched in experiments where absolute cell number was determined.
Anti-Neu CAR T cells were detected using recombinant Neu/Her2.Fc fusion protein conjugated with PE (Neu-PE) (Creative Biomart). Antibodies used in in vitro assays included anti-CD45-FITC/e450 (30-F11, Invitrogen), anti-IFN-γ-APC (XMG1.2, Invitrogen), anti-TNF-PE-Cy7 (MP6-XT22, Invitrogen) and anti-IL-17A-PE (eBio17B7, Invitrogen). Tumor-infiltrating immune cells were detected and analyzed with anti-CD45-FITC, anti-CD3-e450 (17A2, Invitrogen), anti-CD4-BV510 (GKL.5, Biolegend), anti-CD8-APC-Cy7 (53-6.7 BD Biosciences), anti-CD44-PerCP5.5 (IM7, Invitrogen), anti-CD62L-APC (MEL-14, Invitrogen), anti-CD11b-BV711 (M1/70, Invitrogen), anti-F4/80-BV605 (BM8, Invitrogen), anti-Gr-1-Percp5.5 (RB6-8C5, Invitrogen), anti-PD-1-PE-Cy7 (J43, Invitrogen), anti-CD127-BV421 (A7R34, Biolegend), anti-KLGR1-BV605 (2F1, BD Bioscience). For in vivo intracellular protein staining, anti-Foxp3-PerCP5.5 (FJK-16S. Invitrogen), anti-Ki67-APC (SOLA15, Invitrogen) were used. Dead cells were excluded with Fixable Viability Stain 700 (BD Biosciences) and Fc receptors were blocked with Fc block (BD Biosciences). Cell number was determined using Count Bright Beads (Invitrogen). Data were collected using a BD LSR-Fortessa or BD Canto cytometer (BD Biosciences). Data were analyzed with FlowJo software (Treestar).

NT2 tumors [3] = experiment: Single cell RNA sequencing of tumor infiltrating CD45+ immune cells; conditions: DMXAA with Th/Tc17 CAR T cells
Text: At day 7 or day 10 after CAR-T therapy, tumors were bluntly resected and cut into small pieces and digested using Tumor Dissociation Kit, mouse (Miltenyi) in gentleMACS™ Dissociator (Miltenyi) according to manufacturer's instruction. After digestion, dead and dying cells were magnetically separated using a Dead Cell Removal Kit (Miltenyi), after which immune cells were magnetically enriched using CD45 (TIL) MicroBeads (Miltenyi). Single cells were partitioned using a Chromium Controller (10× Genomics), and gene expression sequencing libraries were generated using Chromium Single Cell 3′ Library & Gel Bead Kit v3 (10× Genomics). The libraries were pooled and sequenced using an Illumina NovaSeq 6000 (Illumina). Raw base call files were demultiplexed with Cell Ranger 3.1.0 (10× Genomics) and bcl2fastq Conversion Software v2.20.0 (Illumina).
Single cell results from Cell Ranger output was analyzed using Partek flow workstation (available at partek.com/application-page/single-cell-gene-expression/). In detail, single cell result from each sample of Cell Ranger output was filtered using single cell (QA/QC) filter to exclude doublets/multiplets, cells expressing genes <30 genes per cell and dead cells. Processed results were normalized using recommended method, including log normalization of gene expression and scaled to count per million. Following results were filtered out by feature (gene) that were not expressed in 99% of samples. Then the replicate samples were pooled and clustered with an unsupervised method based on PCA using the first 16 principle component. Clustered plots were visualized by t-SNE plot, where cells were clustered using shared nearest neighbor (SNN). Populations was determined by expression of key markers, including Cd3e (T cells), Adgre1 (macrophage) and Itgam and/or Itgax (myeloid cells), and T cells were further clustered by expression of Cd8 and Cd44 (activated CD8 T cells), lack of Cd44 (naive T cells), Cd4 Cd44 (activated CD4 T cells) and Cd4 Foxp3 (Treg). For comparison, samples from each treatment group was pooled by the mean expression to simulate bulk RNA-seq, and compared using GSA analysis directly. Gene hits that reached P<0.05 with more than 2 or less than −2 fold expression difference was reported and shown as a heat map for pooled samples (macrophage and myeloid cells) or Q<0.05 with 2 or −2 fold expression difference for non-pooled samples (T cells). Further detailed analysis steps can be found on Partek flow page (available at documentation.partek.com/pages/viewpage.action?pageId=12943422) and parameter setting was set as default unless indicated.

[4] = DMXAA prior to Th/Tc17 CAR-T cell infusion, compared to mock transduced T cells or Th/Tc17 CAR-T cells alone
[5] = DMXAA with Th/Tc17 CAR T cells, flow cytometry

**Q.** For `Cc1ccc2c(=O)c3cccc(CC(=O)O)c3oc2c1C` [DMXAA], which anti-tumor efficacy (NT2 tumors [1]; [4]) is on record?
**A.** significantly improved

**Q.** And the overall survival (NT2 tumors [1]; [4])?
**A.** significantly improved

**Q.** And the “requirement for tumor remission” value (NT2 tumors [1]; Th/Tc17 CAR-T, DMXAA, anti-PD-1 and anti-Gr1 treatment)?
**A.** required for tumor remission

**Q.** What about the “persistence of CAR T cells in the TME” value (NT2 tumors [2]; DMXAA given with 7/15 CAR T cells, at a site remote from the tumor) of the same compound?
**A.** enhanced the persistence

**Q.** What about the “number of CAR T cells” value (NT2 tumors [2]; DMXAA treatment, through day 10 post-therapy) of the same compound?
**A.** marked increase

**Q.** What about the “number and percentage of CD4+ CAR T cells” value (NT2 tumors [2]; [5]) of the same compound?
**A.** increase in the number and percentage

**Q.** And the “percentage and number of CAR T cells in the TME” value (NT2 tumors [2]; [5])?
**A.** greatly increased

**Q.** What about the “expression of CXCL9 and CXCL10 by myeloid cells within the TME” value (NT2 tumors [3]) of the same compound?
**A.** increased expression

**Q.** And the “expression of APOE, PTGS2 and AREG in myeloid cells” value (NT2 tumors [3]; day 7)?
**A.** reduced expression

**Q.** And the “expression of BATF2, CXCL10, CCL5, SOCS1, NOS2 and IL12A in second myeloid cluster” value (NT2 tumors [3]; day 7)?
**A.** greatly enhanced expression

**Q.** And the “expression of genes associated with M1-like macrophages including NOS2 and INHBA” value (NT2 tumors [3]; day 7)?
**A.** increased expression

**Q.** What about the “presence of M2-like macrophages expressing RENTLA, MMRC1, FOLR2 and IL10 in the TME” value (NT2 tumors [3]; day 7) of the same compound?
**A.** marked decrease

**Q.** What about the “accumulation of T cells co-expressing TBX21, IFNG, CXCR3 and CCR5” value (NT2 tumors [3]; day 7, CD8+ CAR T cells) of the same compound?
**A.** enhanced the accumulation
